# Measurements from US20090312277A1, “Compositions And Methods For Reversing Or Preventing Resistance Of A Cancer Cell To A Cytotoxic Agent” (priority 2004, published 2009).
# Peptide text beside a SMILES is read from it. * marks the point of attachment. Cbz = O=C(OCc1ccccc1)*; CHN2 = [N-]=[N+]=C*; tBu = CC(C)(C)*
# How the values were obtained:
# caspase-3 = assay: Western blot of cleaved (active) caspase-3 in SKN-SH/R cells; format: cell-based, human; details: cathepsin L inhibitor 10 μM + doxorubicin 10^−6M, 24 hours
# Protocol: (§1) Doxorubicin resistant human neuroblastoma cells (SKN-SH/R) were subjected, in 25 cm^2 flasks, to treatment with a cathepsin L inhibitor and doxorubicin each, alone or in combination. After 24 hours of incubation, culture medium was removed and the cells washed twice with PBS. Proteins were solubilized with 150 μl of lysis buffer (50 mM HEPES pH 7.4, 150 mM NaCl, 100 mM NaF, 1 mM MgCl2, 1.5 mM EGTA, 10% glycerol, 1% Triton X100, 1 μg/ml leupeptin, 1 mM phenyl-methyl-sulfonyl-fluoride). Equal quantities of protein were separated by electrophoresis on a 12% SDS-PAGE gel and transferred to Immobilon-P membranes (Millipore, Bedford, Mass.). P21/WAF1 and cleaved (active) caspase-3 were detected by reaction with specific primary antibodies (P21/WAF1 primary antibody from Santa Cruz Biotechnologies, Santa Cruz, Calif.; and caspase-3 primary antibody from Cell Signaling Technology, Inc., Beverly, Mass.) after one hour of incubation at room temperature in PBS (pH7.4). This was followed by incubation of the membrane for 1 hour at room temperature with presence of secondary anti-Rabbit antibody linked to horseradish peroxidase (Bio-Rad Laboratories, Hercules, Calif.) (1/1000 in PBS). Reactive bands were detected by chemiluminescence.
# Purified cathepsin L = biological target: T1, Purified cathepsin L (Homo sapiens, UniProt P07711); assay: Cathepsin L activity, fluorogenic substrate (CV-Cathepsin L Detection Kit); format: biochemical; details: inhibitor 10 μM, 200 ng cathepsin L; positive control 4e+5 AU, negative control 0.75e+5 AU
# T1 construct: purchased Biomol, Plymouth Meeting, Pa
# Protocol: Cathepsin L activity was measured using a commercially available kit according to the manufacturer's procedure (CV-Cathepsin L Detection Kit; Biomol, Plymouth Meeting, Pa.). Purified cathepsin L (Biomol, Plymouth Meeting, Pa.) (200 ng) was incubated with each inhibitor (10 μM) in a 96 well plate for 15 min at room temperature in 100 μl of reaction buffer (100 mM sodium acetate pH 5, 1 mM EDTA (ethylenediaminetetraacetic acid), and 4 mM dithiothreitol). The protease inhibitors tested were: lactacystin and inhibitors of cathepsin L, B, S, and K. 100 μl of a fluorogenic substrate (CV-Cathepsin L Detection Kit; Biomol, Plymouth Meeting, Pa.) were added and incubated for an additional 30 min at room temperature. Fluorescence was measured in a plate reader (Victor Multilabel Counter, Perkin Elmer) at 380 nm excitation and […] emission wavelengths.
# p21/WAF1 = assay: Western blot of p21/WAF1 in SKN-SH/R cells; format: cell-based, human; details: 24 hours
# Protocol: as §1
# [1] = tested on: drug resistant osteosarcoma cells (Saos2-R); assay: Cell count of drug resistant osteosarcoma cells after siRNA or inhibitor and doxorubicin; format: cell-based; details: doxorubicin 10^−5 M for 48 hours, untreated 1.6e+6 AU
# Excerpt: The human cathepsin L siRNA was designed in our laboratory by studying a cDNA sequence of the human cathepsin L gene (SEQ ID NO: 2). We selected a segment defined by nucleotide numbers 91-111, sent that sequence to a contract laboratory (Dharmacon, Lafayette, Colo.), which synthesized an siRNA molecule based on the aforementioned segment. The segment of the human cathepsin L cDNA we used was: […] (91-111) (SEQ ID NO: 2). On the day before transfection, 3×10^5 drug resistant osteosarcoma cells (Saos2-R) were seeded in 6-well plates and grown in 2.5 ml of DMEM supplemented with 10% FBS. After 24 hours in culture, 25 μl of 20 μM stock solution of siRNA duplexes were transfected into cells with GeneSilencer™ SiRNA Transfection Reagent Kit (Gene Therapy Systems, Inc., San Diego, Calif.). Briefly, adherent cells were transfected in 6 well plates. Cells were about 70% confluent. In one tube, 5 μl of GeneSilencer™ was mixed with 25 μl of serum free medium. In a second tube, 25 μl of siRNA diluent was mixed with […] of serum free medium and 20 μl of siRNA (100 nM). After incubation of tubes 1 and 2, at room temperature for 5 min, they were mixed together into tube 3 and incubated for an additional 5 min. The content of tube 3 was added to the cells in the 6 well plates and incubated for 2 days before the addition of the drug. After 48 hours of incubation, doxorubicin (10^−5 M) was added and maintained in culture for an additional 48 hours before analysis. The cells were counted and protein lysates were used to detect cathepsin L expression by Western blot as described above.
# Neuro2A wild type = assay: MTT cytotoxicity assay, Neuro2A wild type cells; format: cell-based, murine; details: Mus musculus, N2a, 96 hours, read-out: IC50 of doxorubicin alone (converted)
# Protocol: (§2) Cytotoxic activity of doxorubicin and cysteine protease inhibitors were quantitatively determined by a calorimetric assay utilizing 3-(4,5-dimethyl-2-thiazolyl) 2,5-diphenyl tetrazolium bromide (MTT; Sigma-Aldrich, St. Louis, Mo.). Briefly, cells were seeded at 10^4 cells/well in 96-well plates and maintained in culture for 24 hours at 37° C. in DMEM supplemented with 10% FBS. Drugs were added to designated wells and cells were incubated for 96 hours, following which MTT (10 μL of 5 mg/ml solution) was added to each 100 μl well and incubated for 4 hours at 37° C. The cells were solubilized by incubation with 100 μl of HCl 0.5N in isopropanol for 15 hours at 37° C. The optical density of this solution was measured at 570 nm and the percentage of viable cells estimated by comparison with untreated control cells.
# (§3) The effect of cathepsin L inhibitor was tested on drug sensitive and resistant (R) cell lines corresponding to various cancer types, including the human neuroblastoma cell line SKN-SH (ATCC Cat. No. HTB-11), the murine neuroblastoma cell line Neuro2A (ATCC Cat. No. CCL-131), the osteosarcoma cells Saos2 (ATCC Cat. No. HTB-85) and the leukemia cell line HL-60 (ATCC Cat. No. CCL240). The cells were treated with cathepsin L inhibitor with or without doxorubicin as described above. Cell viability was calculated after 96 hours of incubation with the drug combination. […]
# SKN-SH/R cells = assay: MTT cytotoxicity assay, doxorubicin-resistant neuroblastoma cells; format: cell-based; details: Homo sapiens, SK-N-SH, 96 h, read-out: IC50 (concentration at which 50% of cells remained viable) of the cytotoxic agent alone, SKN-SH/R cells, agent alone (control cells), 96 hours, MTT
# Protocol: (§4) Human neuroblastoma SKN-SH cells (ATCC Cat. No. HTB-11) were cultured in Dulbecco's Modified Eagles Medium (DMEM; Gibco, Grand Island, N.Y.) supplemented with 10% fetal bovine serum (FBS; Sigma-Aldrich, St. Louis, Mo.) at 37° C. in a 95% Air/5% CO2 atmosphere. Resistant cells to doxorubicin (SKN-SH/R) were selected by stepwise exposure to drug concentrations ranging from 10^−9 M through 10^−6 M over a time period of three months. The resulting cell line was subjected to treatment with the doxorubicin alone or in combination with: proteosome inhibitor (Lactacystin), cathepsin B inhibitor (L-3-trans-(Propylcarbamoyl)oxirane-2-carbonyl]-L-isoleucyl-L praline), cathespin L inhibitor (Z-Phe-Tyr(t-Bu)-diazomethylketone), cathespin K inhibitor (1,3-Bis(N-CBZ-Leu-NH)-2-propanonel,3 -Di(N-carbonbenzoyloxy-L-leucyl)amino acetone), or cathespin S inhibitor (Z-Phe-Leu-COCHO.H2O), (all available from Calbiochem-Novabiochem, San Diego) at 10 μM each to determine whether they affect cell response to doxorubicin.
# (§5) Cytotoxic activity of doxorubicin and cysteine protease inhibitors were quantitatively determined by a calorimetric assay utilizing 3-(4,5-dimethyl-2-thiazolyl) 2,5-diphenyl tetrazolium bromide (MTT; Sigma-Aldrich, St. Louis, Mo.). […] The optical density of this solution was measured at 570 nm and the percentage of viable cells estimated by comparison with untreated control cells. […]
# [2] = tested on: Drug-sensitive cells SKN-SH; assay: Prevention of development of doxorubicin resistance, viable cell count, SKN-SH; format: cell-based, human; details: repeated four-day treatments with increasing doxorubicin
# Excerpt: (§6) As discussed above, inhibition of cathepsin L enhanced drug response only in drug-resistant cells. Another aspect of the present invention was to determine whether treatment of drug-sensitive cancer cells with this drug combination prevents them from becoming drug resistant. […] After 4 days in culture, the surviving cells were subjected to the same treatment for an additional four days. The cells were then subjected to two subsequent treatments for four days with 2.5×10^−8 M doxorubicin with or without the cathepsin L inhibitor at 10 μM. The surviving cells were then treated with doxorubicin 5×10^−8 M doxorubicin with or without cathepsin L (10 μM) for four days. At the end of each incubation period, viable cells were counted.
# [3] = tested on: HL-60 doxorubicin resistance cells; assay: MTT cytotoxicity assay, HL-60 doxorubicin resistant cells; format: cell-based; details: Homo sapiens, 96 hours, read-out: IC50 of doxorubicin alone (converted)
# Protocol: as §2, §3
# Saos2 wild type = assay: MTT cytotoxicity assay, Saos2 wild type cells; format: cell-based; details: Homo sapiens, SAOS-2, 96 hours, read-out: IC50 of doxorubicin alone (converted)
# Protocol: as §2, §3
# [4] = tested on: ovarian cancer (A2780/CR); assay: cells; details: Homo sapiens, A2780, 192 h, read-out: percentage of viable cells, single agent
# Protocol: (§7) The following additional cell lines were tested: breast cancer (MCF-7/doxR) (MCF: ATCC Cat. No. HTB-22) and ovarian cancer (A2780/CR; European collection of cell culture cat# 931112519, Salisbury, UK). Cells were treated with doxorubicin (10^−5M) and/or a cathepsin L inhibitor (25 μM) for eight days. Viable cell number was counted and normalized to 100% of non-treated cells.
# [5] = tested on: breast cancer (MCF-7/doxR); assay: cells; details: Homo sapiens, MCF7, 192 h, read-out: percentage of viable cells, single agent
# Protocol: as §7
# [6] = tested on: Neuro2A doxorubicin resistant cells; assay: MTT cytotoxicity assay, Neuro2A doxorubicin resistant cells; format: cell-based, murine; details: Mus musculus, N2a, 96 hours, read-out: IC50 of doxorubicin alone (converted)
# Protocol: as §2, §3
# [7] = tested on: Saos2 doxorubicin resistant; assay: MTT cytotoxicity assay, Saos2 doxorubicin resistant cells; format: cell-based; details: Homo sapiens, SAOS-2, 96 hours, read-out: IC50 of doxorubicin alone (converted)
# Protocol: as §2, §3
# HL-60 wild type = assay: MTT cytotoxicity assay, HL-60 wild type cells; format: cell-based; details: Homo sapiens, 96 hours, read-out: IC50 of doxorubicin alone (converted)
# Protocol: as §2, §3
# [8] = tested on: Drug-sensitive cells Saos2; assay: Prevention of development of doxorubicin resistance, viable cell count, Saos2; format: cell-based; details: repeated four-day treatments with increasing doxorubicin
# Excerpt: as §6
# [9] = tested on: Doxorubicin resistant human neuroblastoma cells (SKN-SH/R); assay: Tumor growth of SKN-SH/R cells injected into nude mice; format: in vivo; details: nude mice, i.p. on day 11, 14, 17; doxorubicin alone 1.5 mg/Kg or iCL alone 30 mg/Kg
# Protocol: Doxorubicin resistant human neuroblastoma cells (SKN-SH/R) cells grown into 75 cm^2 flasks were harvested by trypsinization and centrifuged to remove trypsin. The pellet was then reconstituted in culture medium at 10^7 cell/ml. On day one, 100 μl (10^6 cells) were injected to the right flank of nude mice (5 per group) and after the tumor became palpable at day 11, mice were assigned to four groups: 1) controls (treated with the vehicle DMSO), 2) Dox. 1.5 mg/kg (treated with doxorubicin alone 1.5 mg/Kg), 3) iCL 30 mg/Kg (treated with cathepsin L inhibitor alone at 30 mg/Kg), and 4) Dox 1.5 mg/Kg+iCL 30 mg/Kg (treated with the combination of doxorubicin 1.5 mg/Kg and cathepsin L inhibitor 30 mg/Kg). Intraperetoneal injections were given on day 11, day 14, and day 17.
# SKN-SH wild type cells = assay: MTT cytotoxicity assay, SKN-SH wild type cells; format: cell-based; details: Homo sapiens, SK-N-SH, 96 h, read-out: IC50 of the cytotoxic agent alone
# Protocol: as §4, §5
# T1 sequence (P07711 114-333, species assumed): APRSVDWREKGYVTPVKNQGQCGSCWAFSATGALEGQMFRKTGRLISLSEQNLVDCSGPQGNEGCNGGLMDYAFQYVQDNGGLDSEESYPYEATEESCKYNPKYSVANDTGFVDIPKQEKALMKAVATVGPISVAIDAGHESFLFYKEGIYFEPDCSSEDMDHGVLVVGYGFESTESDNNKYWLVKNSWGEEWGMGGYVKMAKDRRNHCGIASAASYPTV
Compound,"caspase-3 activation (Western blot), combination with doxorubicin 10^−6M (caspase-3)",cathepsin L activity (arbitrary units) in presence of inhibitor (Purified cathepsin L),"expression of p21/WAF1 (Western blot), combination with doxorubicin 10^−6M (p21/WAF1; cathepsin L inhibitor 10 μM + doxorubicin 10^−6M)","expression of p21/WAF1 (Western blot), combination with doxorubicin 10^−7M (p21/WAF1; cathepsin L inhibitor 10 μM + doxorubicin 10^−7M)","cell number, in combination with doxorubicin [1]",IC50 (Neuro2A wild type),IC50 (SKN-SH/R cells),"change in percentage of viable cells over successive treatments, doxorubicin alone [2]",IC50 [3],IC50 (Saos2 wild type),viability at 25 µM [4],viability at 25 µM [5],IC50 [6],IC50 [7],IC50 (HL-60 wild type),"effect on percentage of viable cells over successive treatments, doxorubicin alone [8]","average tumor volume on day 27, single agent [9]",IC50 (SKN-SH wild type cells)
"CC(C)(C)Oc1ccc(C[C@H](NC(=O)[C@H](Cc2ccccc2)NC(=O)OCc2ccccc2)C(=O)C=[N+]=[N-])cc1 [cathepsin L inhibitor, Z-Phe-Tyr(t-Bu)-diazomethylketone] (Cbz-Phe-Tyr(tBu)-CHN2)",increased caspase-3 activation,1e+5 AU,decreased expression of p21/WAF1,enhanced expression of p21/WAF1,2.0e+5 AU,–,–,–,–,–,–,–,–,–,–,–,–,–
COc1cccc2c1C(=O)c1c(O)c3c(c(O)c1C2=O)C[C@@](O)(C(=O)CO)C[C@@H]3O[C@H]1C[C@H](N)[C@H](O)[C@H](C)O1 [doxorubicin],–,–,–,–,–,~31.6 nM,~178 nM,no change,~31.6 µM,~100 nM,~70%,~50%,~3.16 µM,~5.62 µM,~56.2 nM,no affect,approximately 1600 mm^3,~1.78 nM
